Data set [1] in a line: Compound cytotoxicity, XTT-based colorimetric assay. The class given is cell-based. The note with it: human; uninfected MT2 cells, day 4, XTT. On the procedure: Compound cytotoxicity and the corresponding CC50 values were determined using the same protocol as described in the antiviral assay except that uninfected cells were used. Cytotoxicity was assessed on day 4 in uninfected MT2 cells by using a XTT (2,3-bis[2-Methoxy-4-nitro-5-sulfophenyl]-2H-tetrazolium-5-carboxyanilide inner salt)-based colorimetric assay (Sigma-Aldrich, St Louis, Mo).

In data set [2] the test system is recombinant NL4-3 virus (nef section replaced with Renilla luciferase gene) in MT-2 cells. The data set can be described thus: HIV cell culture assay (antiviral activity, luciferase readout in infected MT-2 cells). The settings on record: NL43. The class given is cell-based. The protocol: HIV cell culture assay—MT-2 cells, 293T cells and the proviral DNA clone of NL4-3 virus were obtained from the NIH AIDS Research and Reference Reagent Program. MT-2 cells were propagated in RPMI 1640 media supplemented with 10% heat inactivated fetal bovine serum (FBS), […]. The 293T cells were propagated in DMEM media supplemented with 10% heat inactivated FBS, […]. A recombinant NL4-3 proviral clone, in which a section of the nef gene was replaced with the Renilla luciferase gene, was used to make the reference virus used in these studies. The recombinant virus was prepared through transfection of the recombinant NL4-3 proviral clone into 293T cells using Transit-293 Transfection Reagent from Minis Bio LLC (Madison, Wis.). Supernatent was harvested after 2-3 days and the amount of virus present was titered in MT-2 cells using luciferase enzyme activity as a marker by measuring luciferase enzyme activity. Luciferase was quantitated using the EnduRen Live Cell Substrate from Promega (Madison, Wis.). Antiviral activities of compounds toward the recombinant virus were quantified by measuring luciferase activity in MT-2 cells infected for 4-5 days with the recombinant virus in the presence of serial dilutions of the compound.
The 50% effective concentration (EC5o) was calculated by using the exponential form of the median effect equation where (Fa)=1/[1+(ED50/drug conc.)m] (Johnson Va., Byington R T. Infectivity Assay. In Techniques in HIV Research. ed. Aldovini A, Walker B D. 71-76. New York: Stockton Press.1990). The 50% inhibitory concentration (EC50) was calculated by using the exponential form of the median effect equation where percent inhibition=1/[1 +(EC50/drug concentration)m], where m is a parameter that reflects the slope of the concentration-response curve.

The results in this text go back to US20210393633A1, “INHIBITORS OF HUMAN IMMUNODEFICIENCY VIRUS REPLICATION” (ViiV HEALTHCARE UK (NO.5) LIMITED, priority 2018, published 2021).

Structures are written as SMILES.

`Cn1nc(NS(C)(=O)=O)c2c(Cl)ccc(-n3c([C@H](Cc4cc(F)cc(F)c4)NC(=O)Cn4nc(C(F)F)c5c4C(F)(F)[C@@H]4C[C@H]54)nc4cc(CCc5ccccc5)ccc4c3=O)c21` (atropisomer, axis not shown; (P)) [Example 3, N—((S)-1-((3P)-3-(4-chloro-1-methyl-3-(methylsulfonamido)-1H-indazol-7-yl)-4-oxo-7-phenethyl-3,4-dihydroquinazolin-2-yl)-2-(3,5-difluorophenyl)ethyl)-2-((3bS,4aR)-3-(difluoromethyl)-5,5-difluoro-3b,4,4a,5-tetrahydro-1H-cyclopropa[3,4]cyclopenta[1,2-c]pyrazol-1-yl)acetamide] came in with a CC50 at 4 day in data set [1] of over 1000 nM. Moreover, the EC50 in data set [2] was found to be 0.771 nM.
The matching figures for `CCCCCCCCc1ccc2c(=O)n(-c3ccc(Cl)c4c(NS(C)(=O)=O)nn(C)c34)c([C@H](Cc3cc(F)cc(F)c3)NC(=O)Cn3nc(C(F)F)c4c3C(F)(F)[C@@H]3C[C@H]43)nc2c1` (atropisomer, axis not shown; (P)) [Example 4, N—((S)-1-((3P)-3-(4-chloro-1-methyl-3-(methylsulfonamido)-1H-indazol-7-yl)-7-octyl-4-oxo-3,4-dihydroquinazolin-2-yl)-2-(3,5-difluorophenyl)ethyl)-2-((3bS,4aR)-3-(difluoromethyl)-5,5-difluoro-3b,4,4a, 5-tetrahydro-1H-cyclopropa[3, 4]cyclopenta [1,2-c]pyrazol-1-yl)acetamide]: over 1000 nM and 3.9 nM.
For `Cn1nc(NS(C)(=O)=O)c2c(Cl)ccc(-n3c([C@H](Cc4cc(F)cc(F)c4)NC(=O)Cn4nc(C(F)F)c5c4C(F)(F)[C@@H]4C[C@H]54)nc4cc(Cc5ccccc5)ccc4c3=O)c21` (atropisomer, axis not shown; (P)) [Example 5, N—((S)-1-(7-benzyl-(3P)-3-(4-chloro-1-methyl-3-(methylsulfonamido)-1H-indazol-7-yl)-4-oxo-3,4-dihydroquinazolin-2-yl)-2-(3,5-difluorophenyl)ethyl)-2-((3bS,4aR)-3-(difluoromethyl)-5,5-difluoro-3b,4,4a,5-tetrahydro-1H-cyclopropa[3,4]cyclopenta[1,2-c]pyrazol-1-yl)acetamide], in that order: over 1000 nM and 0.221 nM.
The matching figures for `Cn1nc(NS(C)(=O)=O)c2c(Cl)ccc(-n3c([C@H](Cc4cc(F)cc(F)c4)NC(=O)Cn4nc(C(F)F)c5c4C(F)(F)[C@@H]4C[C@H]54)nc4cc(C5=CCCCC5)ccc4c3=O)c21` (atropisomer, axis not shown; (P)) [Example 6, N—((S)-1-((3P)-3-(4-chloro-1-methyl-3-(methylsulfonamido)-1H-indazol-7-yl)-7-(cyclohex-1-en-1-yl)-4-oxo-3,4-dihydroquinazolin-2-yl)-2-(3,5-difluorophenyl)ethyl)-2-((3bS,4aR)-3-(difluoromethyl)-5,5-difluoro-3b,4,4a,5-tetrahydro-1H-cyclopropa[3,4]cyclopenta[1,2-c]pyrazol-1-yl)acetamide]: over 1000 nM and 1.32 nM.
In data set [1], `CC(C)=C(C)c1ccc2c(=O)n(-c3ccc(Cl)c4c(NS(C)(=O)=O)nn(C)c34)c([C@H](Cc3cc(F)cc(F)c3)NC(=O)Cn3nc(C(F)F)c4c3C(F)(F)[C@@H]3C[C@H]43)nc2c1` (atropisomer, axis not shown; (P)) [Example 7, N—((S)-1-((3P)-3-(4-chloro-1-methyl-3-(methylsulfonamido)-1H-indazol-7-yl)-7-(3-methylbut-2-en-2-yl)-4-oxo-3,4-dihydroquinazolin-2-yl)-2-(3,5-difluorophenyl)ethyl)-2-((3bS,4aR)-3-(difluoromethyl)-5,5-difluoro-3b,4,4a,5-tetrahydro-1H-cyclopropa[3,4]cyclopenta[1,2-c]pyrazol-1-yl)acetamide] had a CC50 at 4 day of over 1000 nM. For the same compound, in data set [2], the half-maximal effective concentration (EC50) came out at 0.386 nM.
For `Cn1nc(NS(C)(=O)=O)c2c(Cl)ccc(-n3c([C@H](Cc4cc(F)cc(F)c4)NC(=O)Cn4nc(C(F)F)c5c4C(F)(F)[C@@H]4C[C@H]54)nc4cc(C5=CCCC5)ccc4c3=O)c21` (atropisomer, axis not shown; (P)) [Example 8, N—((S)-1-((3P)-3-(4-chloro-1-methyl-3-(methylsulfonamido)-1H-indazol-7-yl)-7-(cyclopent-1-en-1-yl)-4-oxo-3,4-dihydroquinazolin-2-yl)-2-(3,5-difluorophenyl)ethyl)-2-((3bS,4aR)-3-(difluoromethyl)-5,5-difluoro-3b,4,4a,5-tetrahydro-1H-cyclopropa[3,4]cyclopenta[1,2-c]pyrazol-1-yl)acetamide], in that order: over 1000 nM and 0.392 nM.
The matching figures for `Cn1nc(NS(C)(=O)=O)c2c(Cl)ccc(-n3c([C@H](Cc4cc(F)cc(F)c4)NC(=O)Cn4nc(C(F)F)c5c4C(F)(F)[C@@H]4C[C@H]54)nc4cc(C5=CCOCC5)ccc4c3=O)c21` (atropisomer, axis not shown; (P)) [Example 9, N—((S)-1-((3P)-3-(4-chloro-1-methyl-3-(methylsulfonamido)-1H-indazol-7-yl)-7-(3,6-dihydro-2H-pyran-4-yl)-4-oxo-3,4-dihydroquinazolin-2-yl)-2-(3,5-difluorophenyl)ethyl)-2-((3bS,4aR)-3-(difluoromethyl)-5,5-difluoro-3b,4,4a,5-tetrahydro-1H-cyclopropa[3,4]cyclopenta[1,2-c]pyrazol-1-yl)acetamide]: over 1000 nM and 0.064 nM.
For `Cn1nc(NS(C)(=O)=O)c2c(Cl)ccc(-n3c([C@H](Cc4cc(F)cc(F)c4)NC(=O)Cn4nc(C(F)F)c5c4C(F)(F)[C@@H]4C[C@H]54)nc4cc(C5CCOCC5)ccc4c3=O)c21` (atropisomer, axis not shown; (P)) [Example 11, N—((S)-1-((3P)-3-(4-chloro-1-methyl-3-(methylsulfonamido)-1H-indazol-7-yl)-4-oxo-7-(tetrahydro-2H-pyran-4-yl)-3,4-dihydroquinazolin-2-yl)-2-(3,5-difluorophenyl)ethyl)-2-((3bS,4aR)-3-(difluoromethyl)-5,5-difluoro-3b,4,4a,5-tetrahydro-1H-cyclopropa[3,4]cyclopenta[1,2-c]pyrazol-1-yl)acetamide], in that order: over 1000 nM and 0.046 nM.
Take `Cn1nc(NS(C)(=O)=O)c2c(Cl)ccc(-n3c([C@H](Cc4cc(F)cc(F)c4)NC(=O)Cn4nc(C(F)F)c5c4C(F)(F)[C@@H]4C[C@H]54)nc4cc(CC5CC5)ccc4c3=O)c21` (atropisomer, axis not shown; (P)) [Example 12, N—((S)-1-((3P)-3-(4-chloro-1-methyl-3-(methylsulfonamido)-1H-indazol-7-yl)-7-(cyclopropylmethyl)-4-oxo-3,4-dihydroquinazolin-2-yl)-2-(3,5-difluorophenyl)ethyl)-2-((3bS,4aR)-3-(difluoromethyl)-5,5-difluoro-3b,4,4a,5-tetrahydro-1H-cyclopropal3,41cyclopenta[1,2-c]pyrazol-1-yl)acetamide]: the 50% cytotoxic concentration (CC50) at 4 day in data set [1] was over 1000 nM. Besides, the EC50 in data set [2] was found to be 0.142 nM.
The matching figures for `CN1CC=C(c2ccc3c(=O)n(-c4ccc(Cl)c5c(NS(C)(=O)=O)nn(C)c45)c([C@H](Cc4cc(F)cc(F)c4)NC(=O)Cn4nc(C(F)F)c5c4C(F)(F)[C@@H]4C[C@H]54)nc3c2)CC1` (atropisomer, axis not shown; (P)) [Example 13]: over 1000 nM and 0.098 nM.
On to `CC(C)CCC(F)(F)c1ccc2c(=O)n(-c3ccc(Cl)c4c(NS(C)(=O)=O)nn(C)c34)c([C@H](Cc3cc(F)cc(F)c3)NC(=O)Cn3nc(C(F)F)c4c3C(F)(F)[C@@H]3C[C@H]43)nc2c1` (atropisomer, axis not shown; (P)) [Example 23, N—((S)-1-((3P)-3-(4-chloro-1-methyl-3-(methylsulfonamido)-1H-indazol-7-yl)-7-(1,1-difluoro-4-methylpentyl)-4-oxo-3,4-dihydroquinazolin-2-yl)-2-(3,5-difluorophenyl)ethyl)-2-((3bS,4aR)-3-(difluoromethyl)-5,5-difluoro-3b,4,4a,5-tetrahydro-1H-cyclopropa[3,4]cyclopenta[1,2-c]pyrazol-1-yl)acetamide], for which the concentration giving a half-maximal response (EC50) in data set [2] worked out at 4.4 nM.
